In ChEMBL document CHEMBL4402607, “Molecular Basis for Omapatrilat and Sampatrilat Binding to Neprilysin-Implications for Dual Inhibitor Design with Angiotensin-Converting Enzyme” (J Med Chem, 2020):
pIC50, pKi: −log10 of the molar value.

What was measured:
[1] = target: Neprilysin (Homo sapiens, UniProt P08473); assay: Inhibition of NEP (unknown origin)
[2] = target: T1, Angiotensin-converting enzyme (Homo sapiens, UniProt P12821); assay: Inhibition of human somatic ACE N-domain soluble form (1 to 629 residues) expressed in CHO cells using Z-FHL as substrate preincubated with enzyme followed by substrate addition by fluorescence based assay
T1 sequence (P12821 whole entry, the tested form may be a part): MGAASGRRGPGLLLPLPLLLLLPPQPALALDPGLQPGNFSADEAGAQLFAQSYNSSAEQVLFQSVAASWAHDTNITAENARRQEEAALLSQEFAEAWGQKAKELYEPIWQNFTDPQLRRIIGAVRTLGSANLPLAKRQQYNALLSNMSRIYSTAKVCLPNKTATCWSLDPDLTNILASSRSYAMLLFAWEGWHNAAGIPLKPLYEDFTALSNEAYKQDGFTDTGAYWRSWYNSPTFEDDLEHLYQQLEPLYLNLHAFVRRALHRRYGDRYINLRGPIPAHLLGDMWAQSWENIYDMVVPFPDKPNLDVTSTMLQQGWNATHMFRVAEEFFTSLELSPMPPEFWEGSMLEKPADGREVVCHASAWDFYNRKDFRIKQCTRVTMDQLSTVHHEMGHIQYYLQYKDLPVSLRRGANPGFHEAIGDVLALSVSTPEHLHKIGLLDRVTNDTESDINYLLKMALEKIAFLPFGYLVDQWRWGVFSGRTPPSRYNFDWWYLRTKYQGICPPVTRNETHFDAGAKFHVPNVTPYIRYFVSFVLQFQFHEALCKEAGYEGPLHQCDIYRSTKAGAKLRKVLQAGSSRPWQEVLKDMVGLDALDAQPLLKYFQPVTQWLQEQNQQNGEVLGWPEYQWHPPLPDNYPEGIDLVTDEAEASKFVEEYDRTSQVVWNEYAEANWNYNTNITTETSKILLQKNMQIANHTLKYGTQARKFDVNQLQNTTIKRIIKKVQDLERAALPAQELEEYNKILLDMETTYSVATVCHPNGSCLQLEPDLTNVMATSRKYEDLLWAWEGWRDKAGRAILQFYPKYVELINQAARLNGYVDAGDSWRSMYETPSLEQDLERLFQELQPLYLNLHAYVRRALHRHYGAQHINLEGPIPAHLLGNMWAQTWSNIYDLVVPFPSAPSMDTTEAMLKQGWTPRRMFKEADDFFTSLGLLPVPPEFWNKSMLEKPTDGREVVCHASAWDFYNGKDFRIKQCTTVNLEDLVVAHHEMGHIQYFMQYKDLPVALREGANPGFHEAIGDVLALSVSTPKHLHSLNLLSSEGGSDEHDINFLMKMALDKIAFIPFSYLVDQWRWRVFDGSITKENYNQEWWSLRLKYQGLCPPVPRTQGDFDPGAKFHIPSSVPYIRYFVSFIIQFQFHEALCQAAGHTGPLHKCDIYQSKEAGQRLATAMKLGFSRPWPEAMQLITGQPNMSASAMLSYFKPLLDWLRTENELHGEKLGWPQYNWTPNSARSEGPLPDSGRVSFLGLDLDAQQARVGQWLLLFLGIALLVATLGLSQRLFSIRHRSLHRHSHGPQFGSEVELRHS

[3] = target: T1, Angiotensin-converting enzyme; assay: Inhibition of human testis ACE C-domain lacking unique O-glycosylated region, transmembrane anchor and cytoplasmic tail expressed in CHO cells using Z-FHL as substrate by fluorescence based assay
[4] = target: T1, Angiotensin-converting enzyme; assay: Inhibition of human ACE using MCA-RPPGFSAFK-Dnp-OH as substrate by fluorescence based analysis
[5] = target: T2, Neprilysin (Rattus norvegicus, UniProt P07861); assay: Inhibition of rat kidney NEP using glutaryl-Ala-Ala-beta-naphthylamide as substrate preincubated with enzyme for 15 mins followed by substrate addition
T2 sequence (P07861 whole entry): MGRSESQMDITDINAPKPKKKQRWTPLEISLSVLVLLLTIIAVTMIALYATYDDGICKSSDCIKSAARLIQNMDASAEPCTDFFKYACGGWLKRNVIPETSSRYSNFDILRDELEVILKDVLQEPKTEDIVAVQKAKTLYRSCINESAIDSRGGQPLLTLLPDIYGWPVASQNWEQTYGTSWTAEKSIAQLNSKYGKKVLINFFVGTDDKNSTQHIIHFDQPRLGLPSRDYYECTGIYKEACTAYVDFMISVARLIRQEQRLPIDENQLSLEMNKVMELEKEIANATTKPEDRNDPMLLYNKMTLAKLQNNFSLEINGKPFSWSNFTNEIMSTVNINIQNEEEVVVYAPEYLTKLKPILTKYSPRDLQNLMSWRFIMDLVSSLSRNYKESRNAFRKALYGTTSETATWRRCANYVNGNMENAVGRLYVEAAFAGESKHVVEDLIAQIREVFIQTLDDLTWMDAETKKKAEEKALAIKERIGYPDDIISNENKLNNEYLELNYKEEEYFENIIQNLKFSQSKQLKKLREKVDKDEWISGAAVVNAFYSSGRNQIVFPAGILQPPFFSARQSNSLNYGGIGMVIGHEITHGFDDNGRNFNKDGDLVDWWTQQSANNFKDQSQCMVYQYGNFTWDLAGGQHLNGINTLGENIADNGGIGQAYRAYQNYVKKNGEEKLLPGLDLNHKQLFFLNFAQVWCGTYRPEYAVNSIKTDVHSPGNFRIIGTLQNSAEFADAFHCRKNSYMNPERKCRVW

[6] = Inhibition of rabbit lung ACE using hippuryl-His-Leu as substrate preincubated with enzyme for 15 mins followed by substrate addition; parameters: species or system Oryctolagus cuniculus

Neprilysin (Homo sapiens, UniProt P08473), sequence (P08473 whole entry, the tested form may be a part): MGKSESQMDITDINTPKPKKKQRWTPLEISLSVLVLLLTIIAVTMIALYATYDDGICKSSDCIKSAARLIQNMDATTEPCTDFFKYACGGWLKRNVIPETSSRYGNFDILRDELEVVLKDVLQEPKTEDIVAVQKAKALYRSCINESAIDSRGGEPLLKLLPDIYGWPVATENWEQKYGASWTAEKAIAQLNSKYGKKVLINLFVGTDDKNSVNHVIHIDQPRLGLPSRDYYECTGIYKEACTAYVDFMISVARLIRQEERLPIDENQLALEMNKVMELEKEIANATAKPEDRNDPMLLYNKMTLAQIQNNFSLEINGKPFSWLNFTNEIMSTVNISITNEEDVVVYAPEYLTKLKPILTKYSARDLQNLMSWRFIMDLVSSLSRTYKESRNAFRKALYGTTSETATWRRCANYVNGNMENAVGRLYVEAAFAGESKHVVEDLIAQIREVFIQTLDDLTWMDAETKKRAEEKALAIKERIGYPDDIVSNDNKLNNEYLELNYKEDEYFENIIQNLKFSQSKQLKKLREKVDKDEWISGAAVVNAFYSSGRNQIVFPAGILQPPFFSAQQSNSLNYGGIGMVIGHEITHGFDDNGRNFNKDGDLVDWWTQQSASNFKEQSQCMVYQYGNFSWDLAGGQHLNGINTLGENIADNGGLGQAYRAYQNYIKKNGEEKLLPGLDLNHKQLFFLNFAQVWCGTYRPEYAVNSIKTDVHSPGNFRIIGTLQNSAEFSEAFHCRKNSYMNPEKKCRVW

Row | SMILES | pKi [2] | pKi [3] | also measured
1 | CS(=O)(=O)N[C@@H](CCCCN)C(=O)NC[C@H](CC1(C(=O)N[C@@H](Cc2ccc(O)cc2)C(=O)O)CCCC1)C(=O)O | 6.76 | 7.86 | pIC50 [1]: 8.10
2 | CC(=O)N[C@@H](CC(=O)O)C(=O)NC[C@H](CC1(C(=O)N[C@@H](Cc2ccc(O)cc2)C(=O)O)CCCC1)C(=O)O | 4.97 | 5.13 | 
3 | C[C@H](C[C@@H](Cc1ccc(-c2ccccc2)cc1)NC(=O)CCC(=O)O)C(=O)O [LBQ-657] |  |  | pIC50 [4]: < 4.00
4 | CC(C)C[C@H](NP(=O)(O)O[C@@H]1O[C@@H](C)[C@H](O)[C@@H](O)[C@H]1O)C(=O)N[C@@H](Cc1c[nH]c2ccccc12)C(=O)O [PHOSPHORAMIDON] |  |  | pIC50 [5]: 7.47; pIC50 [6]: 4.11
